Reference: patent publication US6025365A, “Chelerythrine and radiation combined tumor therapy” (Arch Development Corp., priority 1997, dated 2000)

Experiments:
SQ20-B cells [1] = test: Clonogenic survival / colony formation assay; assay type: cell-based, human; details: 20 μM C2-ceramide 30 minutes prior to x-ray
Protocol: FIG. 2. Chelerythrine chloride enhanced IR-mediated cell killing through divisional death. Clonogenic survival was measured following exposure to increasing concentrations of chelerythrine and ionizing radiation. Cells were plated at cell numbers between about 500 cells/plate and about 2000 cells/plate and treated with 0 μM, 0.5 μM, or 1.0 μM chelerythrine chloride for 30 minutes prior to irradiation. After 2 weeks the colonies were scored for survival if they were composed of more than 50 cells. Results represent the mean of three individual experiments with duplicate or triplicate determinants. Error bars represent +/- the standard error of the means (SEM).
FIG. 5C. […] Closed circles represent radiation alone; closed squares represenet addition of 20 μM C2-Ceramide 30 minutes prior to x-ray.
Exponentially growing SQ20B cultures were trypsinized using 0.05% trypsin+0.02% EDTA. Cells (100 to 50,000) were plated in 100 mm tissue culture dishes. Chelerythrine or C2-ceramide was added 4 hours after plating and irradiated for 30 minutes after the addition of chelerythrine or C2-ceramide. The cells were irradiated using a GE Maxitron 250 x-ray generator operating at 250 kV and 26 mA with a dose rate of 114 cGy/min. After 12 days the cells were fixed and stained with crystal violet following standard procedures (Chmura et al., 1996a; 1996b). Colonies of >50 cells were scored as survivors.
Clonogenic survival was measured following increasing concentrations of chelerythrine chloride alone (0.5-1.5 μM), IR alone (1-9 Gy), or the combined treatment of cells with chelerythrine and IR. […] At a concentration of 500 nM, chelerythrine decreased cell survival to about 80% of untreated control cells (about 20% cell death). The combined treatment of cells with 500 nM of chelerythrine 30 minutes prior to treatment with 3 Gy of radiation decreased cell survival to about 30% of untreated cells (about 70% cell death). […] Cell shrinkage and nuclear condensation, characteristic of apoptosis, were not observed at these concentrations of chelerythrine and IR.

WEHI-231 cells = test: Reactive oxygen species by dichlorodihydrofluorescein and FACS; assay type: cell-based, murine; details: 30 μM ceramide or 10 μM chelerythrine, 15 minutes; anti-IgM 2 hours
Protocol: FIGS. 8A-8C. Exogenous ceramide and PKC inhibition induce oxidative changes in WEHI-231 cells. WEHI-231 cells (1×10^6) were treated with anti-IgM antibodies for 2 hours (FIG. 8A), 30 μM exogenous ceramide for 15 minutes (FIG. 8B) or 10 μM chelerythrine for 15 minutes (FIG. 8C). The reactive oxygen species in the cells was then measured using dichlorodihydrofluorescein (DCHF-DA) and quantitated using FACS analysis. Histogram analysis of fluorescence is plotted as LOG function.
The mechanisms by which ceramide may mediate cell death is yet unknown. […] Since changes in oxidative status induced a wide range of cellular responses including growth and apoptosis in WEHI-231 and other lymphocytes, the inhibition of PKC and a resulting accumulation of ceramide were studied for their affect on the level of reactive oxygen species within the cell using the dye dichlorodihydrofluorescein and FACS analysis. […] While non-toxic oxidation may promote cell growth, intracellular reduction may lead to the activation of cysteine proteases which are proposed mediators of apoptosis.

WEHI-231 JM cells = test: Viability by PI staining and FACS, WEHI-231 JM; assay type: cell-based, murine; details: 24 hours
Protocol: (§1) FIG. 11B. WEHI-231 JM and OE cells are equally sensitive to inhibition of sphingosine kinase and exogenous ceramide. Cells were treated with increasing concentrations of C2-ceramide or DL-threo-dihydrosphingosine--apotent inhibitor of sphingosine kinase. Viability was assayed using PI staining and FACS analysis 24 hours after treatment.
(§2) For viability staining, 2.5-3.5×10^5 cells were treated with varying concentrations of C2-ceramide, irradiation, or both.
(§3) In order to address the question of whether the resistance of the OE subline was due, in part, to alterations in ceramide metabolites or targets, three studies were performed. […] Both cell lines were equally susceptible to the effects of sphingosine kinase inhibition and the resulting […] in ceramide. […] Thus the radioresistance can be attributed to the lack of sphingomyelinase activation and the subsequent decreased ceramide production following irradiation.

WEHI-231 OE cells [2] = test: Viability by PI staining and FACS, WEHI-231 OE; assay type: cell-based, murine; details: 24 hours
Protocol: as §1, §2, §3

WEHI-231 OE cells [3] = test: Radiation mediated apoptosis of WEHI-231 OE cells after C2-ceramide pre-treatment; assay type: cell-based, murine; details: C2-ceramide 30 minutes prior to 8 Gy, 24 hours
Protocol: FIG. 11A-1, FIG. 11A-2, and FIG. 11A-3. Exogenous ceramide can sensitize WEHI-231 OE cells to radiation mediated apoptosis. C2-ceramide (Cer) was added to 3×10^5 WEHI-231 OE cells 30 minutes prior to treatment with 8 Gy. Apoptosis was quantitated using propidium iodide staining and FACS analysis. Percent apoptotic cells are shown in gate R2 twenty-four hours following irradiation.
as §2, §3

SQ20-B cells [4] = test: Apoptosis in SQ20-B (propidium iodide FACS, DAPI staining, DNA laddering); assay type: cell-based, human
Protocol: FIGS. 3A-3E. […] M1 defines the % of apoptotic cells as defined by (a) propidium iodide uptake of 1 log or more fluorescence and (b) a decrease in cell size of 50% or more. FL3-Height indicated the uptake of propidium by the cell. In FIG. 3A, M1=5%; FIG. 3B, M1=22%; FIG. 3C, M1=73%; FIG. 3D, M1=16%; FIG. 3E, M1=24%.
Cells undergoing apoptosis also shrink in size.
Cells, 5×10^5, were centrifuged at 1000 rpm and resuspended in approximately 100 μl cell culture media. The cell suspension was then mixed with 100 μl of DAPI (4',6-iamidino-2-phenylindole, Sigma D9542, 1 μg/ml in PBT (PBS+1% Triton X-100)). One drop of this mixture was placed on a microslide with a coverslip. The cells were viewed by fluorescence microscopy using an Olympus BX-40 microscope with a 100 Watt Mercury lamp, a 16 or 40 X Fluorite objective, N.A. 0.75, (Leco #1-UB527) and a UV filter cube (ex 330-385 nm, em 420 nm, wide band pass, Leco #U-M536). Images were photographed using an Optronics cooled low-light video camera (Leco #DEI-470TB) to which was attached a 2X coupler (Leco #HR200-CMT). The image was saved to a digital file at 72 dpi.
DNA degradation was assessed as previously described (Gottschalk et al., 1993; 1994). Briefly, following treatment in 100 mm plates or 24 well plates, cells were collected and lysed in 0.5 ml lysis buffer (0.6% SDS+10 mM EDTA, pH 7.0). […]

[5] = tested on: bcl-x WEHI-231, MG and WEHI-231 OE (JM) cells; test: Effect of protease inhibitors on chelerythrine induced apoptosis in apoptosis-resistant cell lines; assay type: cell-based; details: ZVAD 20 μM, even at doses >15 μM chelerythrine
Protocol: Using the procedures already described (Chmura, 1996; Chmura et al., 1996a; Chmura et al., 1996b), three different apoptosis-resistant cell lines were examined for their susceptibility to apoptosis induced by chelerythrine. The three cell lines used were bcl-x WEHI-231, which represents WEHI-231 cells that have been transfected with bcl-x and are highly resistant to radiation induce apoptosis, MG cells and the WEHI-231 OE (JM) cells previously described.
All three cell lines were treated with chelerythrine and x-irradiation as previously described (Chmura et al., 1996a; Chmura et al., 1996b) with the following modifications. Cells were pre-exposed to YVAD-cmk (100 μM), a protease inhibitor of the interleukin 1-b converting enzyme (ICE) subfamily or to ZVAD (20 μM), which inhibits the cpp32β family of proteases, for 30 minutes before being subjected to chelerythrine.

Row | Molecule | clonogenic survival of irradiated cultures (words) (SQ20-B cells [1]; listed as C2-Ceramide) | clonogenic survival of irradiated cultures (words) (SQ20-B cells [1]; listed as ceramide) | reactive oxygen species (ROS) (WEHI-231 cells) | IC50 (WEHI-231 JM cells) [µM] | IC50 (WEHI-231 OE cells [2]) [µM] | apoptotic response of irradiated cells (WEHI-231 OE cells [3]) | apoptosis following combined IR and chelerythrine (2.5 μM), inhibition (SQ20-B cells [4]; zVAD-fmk 20 μM) | chelerythrine induced apoptosis, inhibition (SQ20-B cells [4]; zVAD-fmk with chelerythrine) | inhibition of chelerythrine induced apoptosis [5]
1 | CCCCCCCCCCCCC/C=C/[C@@H](O)[C@H](CO)NC(C)=O [C2-ceramide] | decreased clonogenic survival | enhanced IR induced cell killing | reduced the ROS in the cells | 3 | 3 | restored the apoptotic response at 24 hours |  |  | 
2 | zVAD-fmk |  |  |  |  |  |  | inhibited apoptosis | blocked chelerythrine induced apoptosis | did block chelerythrine induced apoptosis
